# Tests used:
# 3D7 PFLDH = test system: 3D7 PFLDH; design: method as in F.J. Gamo et al., Nature 2010; concentration or dose not given beside the values; conditions: downloaded from ChEMBL, ref F.J. Gamo et al., Nature 2010; cited from earlier work
# DD2 = test system: DD2; design: method as in F.J. Gamo et al., Nature 2010; conditions: downloaded from ChEMBL, ref F.J. Gamo et al., Nature 2010; cited from earlier work
# [1] = target: T1, Plasmodium falciparum calcium-dependent protein kinase 1 (CDPK1) (Plasmodium falciparum, UniProt P62344); test: CDPK1 Kinase-Glo ATP-consumption screen and dose-response; assay type: biochemical; conditions: hits below 1 uM; read-out: CDPK1 IC50
# T1 construct: 6-Histidine (N); made in house
# T1 sequence (P62344 whole entry): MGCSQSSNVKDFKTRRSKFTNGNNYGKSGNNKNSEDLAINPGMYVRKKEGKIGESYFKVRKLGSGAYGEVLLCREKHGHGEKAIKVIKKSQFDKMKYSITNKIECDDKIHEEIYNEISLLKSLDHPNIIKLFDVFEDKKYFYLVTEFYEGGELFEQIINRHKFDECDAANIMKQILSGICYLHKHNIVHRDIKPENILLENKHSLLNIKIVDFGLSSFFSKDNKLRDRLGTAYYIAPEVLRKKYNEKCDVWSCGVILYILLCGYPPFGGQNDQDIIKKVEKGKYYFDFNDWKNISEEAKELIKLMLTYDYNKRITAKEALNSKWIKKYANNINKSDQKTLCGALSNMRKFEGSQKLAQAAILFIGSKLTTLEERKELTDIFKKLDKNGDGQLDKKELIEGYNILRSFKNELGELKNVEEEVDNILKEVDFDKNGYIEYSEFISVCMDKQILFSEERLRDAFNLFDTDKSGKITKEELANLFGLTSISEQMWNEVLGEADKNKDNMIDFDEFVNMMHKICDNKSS
# Experimental: Biochemical assays were performed in white 384-well plates (Nunc). Liquid transfers were done manually with 8-channel pipets. Compounds were initially tested in a single-point screen (final concentration 1 μM). […] The catalytic activity of each kinase was considered proportional to ATP consumed, as determined from measurements of residual [ATP] with the luciferase-based reagent Kinase-Glo (Promega) following incubation. Luminescence (proportional to residual [ATP]) was measured on the plate readers FLx800 (BioTek Instruments, Winooski, VT, USA) and MicroBeta^2 (PerkinElmer, Waltham, MA, USA). Incubation times were chosen to ensure near-complete ATP depletion in the absence of inhibition, thus maximizing the difference in signal between inhibited and uninhibited wells.
# 40 μM Syntide-2 was used as a substrate; BKI-1 [14] was used as a control inhibitor, while reaction mixtures lacking Syntide-2 were included as an additional negative control. Incubation time was 90 minutes. Reactions were terminated by adding excess EGTA (5 mM), which sequesters Ca^2+ and halts calcium-dependent kinase activity.
# P. falciparum 3D7 cells = conditions: 3D7; downloaded from ChEMBL; ref F.J. Gamo et al., Nature 2010; cited from earlier work
# HepG2 cells = conditions: HepG2; downloaded from ChEMBL; ref F.J. Gamo et al., Nature 2010; cited from earlier work
SMILES,IC50 [1],PCT_INHIB_3D7_PFLDH (3D7 PFLDH),PCT_INHB_DD2 (DD2),PCT_IHB_3D7 (P. falciparum 3D7 cells),pXC50_3D7 (P. falciparum 3D7 cells),PCT_INHIB_HEPG2 (HepG2 cells)
CCn1c(-c2nonc2N)nc2c(-c3ccc(CO)o3)ncc(OCCCN)c21.O=C(O)C(F)(F)F [TCMDC-133807],51 nM,0%,97%,93%,5.866,0%
O=C(O)C(F)(F)F.O=c1[nH]ccc2nc(N[C@@H]3CCNC3)nc(Nc3ccc4c(c3)S(=O)(=O)CC4)c12 [TCMDC-135044],235 nM,0%,99%,100%,6.4233,0%
CCOC(=O)c1cccc(NC(=O)Nc2cccc(-c3ncc(OCCCN)c4c3nc(-c3nonc3N)n4CC)c2)c1.O=C(O)C(F)(F)F [TCMDC-136205],294 nM,2%,98%,100%,6.0485,16%
Cl.c1ccc(Oc2ccc(Nc3ccnc(Nc4ccc5cn[nH]c5c4)n3)cc2)cc1 [TCMDC-138574],765 nM,0%,33%,94%,6.135,6%
Cl.N#CCc1ccc(Nc2nccc(Nc3ccc(Oc4ccccc4)cc3)n2)cc1 [TCMDC-138577],798 nM,6%,47%,98%,6.094,0%
Cl.c1ccc(Oc2ccc(Nc3ccnc(Nc4ccc(OCCN5CCCCC5)cc4)n3)cc2)cc1 [TCMDC-138583],701 nM,0%,66%,97%,6.219,23%
O=C(NCCCN1CCOCC1)c1cccc(Nc2nccc(Nc3ccc(Oc4ccccc4)cc3)n2)c1 [TCMDC-138604],180 nM,0%,22%,98%,6.116,34%

# Second part, led by results:
IC50 [1],SMILES,PCT_INHIB_3D7_PFLDH (3D7 PFLDH),PCT_INHB_DD2 (DD2),PCT_IHB_3D7 (P. falciparum 3D7 cells),pXC50_3D7 (P. falciparum 3D7 cells),PCT_INHIB_HEPG2 (HepG2 cells)
246 nM,CNC(=O)c1ccccc1Nc1nc(Nc2ccc(C(=O)O)cc2)ncc1Cl.Cl [TCMDC-133803],0%,92%,92%,6.022,60%
12 nM,CN1CCN(c2ccc(Nc3ncc(Cl)c(Nc4cccnc4C(N)=O)n3)cc2)CC1.Cl [TCMDC-134164],0%,97%,95%,6.816,99%
186 nM,NC(=O)c1ccccc1Nc1nc(Nc2cc[nH]n2)ncc1Cl [TCMDC-134169],0%,93%,96%,6.019,67%
425 nM,CC(=O)Nc1cccc(Nc2nccc(Nc3ccc(Oc4ccccc4)cc3)n2)c1.Cl [TCMDC-138590],0%,99%,100%,6.128,15%
213 nM,O=C(NCCN1CCCC1)c1cccc(Nc2nccc(Nc3ccc(Oc4ccccc4)cc3)n2)c1 [TCMDC-138602],0%,18%,100%,6.184,33%
250 nM,O=C(NCCN1CCCCC1)c1cccc(Nc2nccc(Nc3ccc(Oc4ccccc4)cc3)n2)c1 [TCMDC-138603],0%,86%,99%,6.563,50%
243 nM,O=C(NCCCN1CCCCC1)c1cccc(Nc2nccc(Nc3ccc(Oc4ccccc4)cc3)n2)c1 [TCMDC-138605],2%,12%,96%,6.086,47%
